Source: patent US11110080B2, “Small molecule inhibitors of bacterial efflux pumps and methods of using same” (The Regents of the University of Colorado, a body Corporate, priority 2017, dated 2021)
“Also recorded” adds a separate entry of the source.

Columns and labels:
Format in all cases: cell-based, Salmonella enterica serovar Typhimurium
[1] = system: extracellular S.Tm grown in MHB broth; test: Broth activity assay (growth / MIC in Mueller Hinton Broth); conditions: Salmonella enterica, three Salmonella strains SL1344, MAR1, S10801
Method: (§1) Overnight Salmonella cultures were washed 3 times in PBS and diluted to an OD of 0.01 in Mueller Hinton Broth in 96-well flat bottom plates. Compound was added using a pin tool (CyBio) or manually, yielding a final concentration of no more than 1% DMSO. Plates were grown at 37° C. shaking and OD600 was monitored using a BioTek Eon incubator shaker microplate absorbance reader. For experiments in defined media, bacteria were grown in M9 minimal media supplemented with 100 mM Tris pH 7.4, 0.35% glycerol, 0.002% histidine, 10 mM MgCl2, and 0.1% casamino acids. Where indicated, media was supplemented with 5 μg/ml polymyxin B or 0.2 mM H2O2. For experiments with LL-37, bacteria were grown in M9 minimal media supplemented with 0.4% dextrose, 0.004% histidine, 1 mM MgSO4, and 5 μg/ml LL-37. For checkerboard assays, MIC was defined as the concentration at which no growth was visually observed.

S.Tm efflux pumps [2] = test: Hoechst 33342 accumulation assay
Method: Efflux pumps (EPs) represent a key pathogen virulence strategy to protect against host antimicrobials as well as therapeutic antibiotics. […] To uncover putative EPMs within our collection of hits, 58 repurchased compounds were screened in a Hoechst accumulation assay. Bacteria were incubated with Hoechst 33342, a dye which fluoresces when bound to DNA.
Hoechst accumulation assays were performed essentially as described in the literature. Briefly, overnight Salmonella cultures were washed 3 times in PBS and diluted to an OD of 0.1 in PBS with 2.5 μM Hoechst 33342 in the presence of the indicated concentrations of compounds. Fluorescence was monitored on a Biotek Synergy 2 with a 360/40 nm excitation filter and 460/40 nm emission filter. The maximum Hoechst fluorescence over 60 minutes of incubation was normalized to the signal from the equivalent number of heat-killed bacteria, after subtraction of autofluroescent signal determined from compound incubated in the absence of bacteria. Curve fitting to determine EC50s was performed using GraphPad Prism.

S.Tm efflux pumps [3] = test: Nile Red efflux assay
Source text: Because Hoechst and other dyes commonly used to assess efflux bind cellular components, direct measurement of efflux is not possible using these methods; instead, the Hoechst assay measures dye accumulation, the net result of entry and efflux. Further, the slow off-rate of Hoechst entails that efflux pumps have no effect on dye already bound to DNA. As a result, compounds which increase Hoechst accumulation may actually enhance dye entry by altering porins or disrupting the membrane. To more specifically measure efflux pump activity, a second technique was employed using the dye Nile Red, a lipophilic membrane-partitioning dye which fluoresces in nonpolar environments. Because Nile Red is not known to bind cellular components, to directly observe efflux cells were preloaded with the dye in the absence of glucose to reduce efflux pump activity (FIG. 7A). Upon addition of glucose, bacteria rapidly effluxed Nile Red and fluorescence returned to baseline levels (FIG. 7B, top panel). […] The initial measured fluorescence was lower for DMSO-treated cells (upper dotted line) than for PAβN-treated cells due to glucose-independent efflux during sample preparation (FIG. 8A). Next, it was determined whether efflux pump activity is restored after removal of PAβN. Bacteria were incubated with compound for 15 minutes, pelleted and resuspended in buffer lacking compound, and then stimulated with glucose (FIGS. 7C, 7E).
Nile Red assays were adapted from an established protocol. Briefly, overnight Salmonella cultures were grown in Mueller-Hinton cation-adjusted broth (Sigma), washed, and resuspended at an OD600 of 2.0. Cells were incubated in 10 μM Nile Red for 3 hours at 37° C. with aeration, then moved to room temperature for 1 hour. After pelleting at 2000× g, dye-loaded cells were aliquoted and combined with compound at the indicated concentrations. Two hundred microliters was loaded into 96-well black walled plates (Greiner) and read using a Varioskan Flash Multimode Reader with 540 nm excitation and 625 nm emission filters. We observed that during loading into plates (˜20 minutes), bacteria were able to efflux Nile Red even in the absence of glucose (FIG. 8A). To activate efflux, glucose was added to a final concentration of 2 mM. In some experiments, bacteria were treated with drug for 15 minutes, pelleted at 16,000×g, resuspended in fresh buffer, and stimulated with 2 mM glucose. All wash and incubation steps were performed in PBS with 1 mM MgCl2; incubations were performed in glass tubes to reduce adhesion of Nile Red.

S.Tm = test: Swimming assay in soft agar (proton motive force); conditions: 50 mM, 10 μl on disk (500×, 125×, ~62.5× the MIC for EPM30, EPM35, EPM43)
Method: One way to inhibit efflux pumps is to disrupt the proton motive force, which is required for transport by some EPs. […] Bacteria were injected into the center of 0.25% agar plates, and 10 μl of compound was added to paper disks on the periphery. […] Also ampicillin and rifampicin were tested. We plotted the halo radius versus the concentration as the fold above the MIC (FIG. 9G). […] Next, it was determined whether PAβN inhibited swimming; PAβN is thought to disrupt membranes over long incubations. […] Finally, the EPMs at […] were tested (FIGS. 9D-F).
Saturated overnight cultures were diluted to an OD600 of 0.01 in LB and 1 μL was injected into the center of low agar (0.25%) LB plates. Ten microliters of the indicated compounds were added to sterilized Whatman paper disks (diameter 0.7 cm) placed equidistant from the plate center.

[4] = system: S.Tm wild-type SL1344, MAR1 and S10801; test: microbe, parasite or virus in culture; conditions: MAR1 and S10801
Method: Increased expression or function of efflux pumps often contributes to clinical multidrug resistance. Therefore, whether the EPMs re-sensitize two multidrug resistant strains of S.Tm to tetracycline was tested. Tetracycline is an antibiotic exported by AcrAB. The MAR1 strain is derived from wild-type SL1344 was selected by exposure to tetracycline, and has increased expression of the AcrAB efflux pump. S10801 is an MDR strain isolated from the mesenteric lymph node of a septic calf and is resistant to tetracycline, ampicillin, chloramphenicol, nalidixic acid, and triple sulfa. The basis of multi-drug resistance in this strain is unknown.
as §1

S.Tm efflux pumps [5] = test: Nile Red efflux assay; conditions: 20 minutes incubation in 75 μM

`CC(C)c1nc(NC(=N)N)sc1Br` [EPM30] was tested, and the MIC [1] was 100 µM, the “Hoechst assay EC50 relative to PAβN” value (S.Tm efflux pumps [2]) was “lower than that of PAβN” and the “Hoechst accumulation / fluorescence” value (S.Tm efflux pumps [2]; wild-type S.Tm, 60 minutes) was “increased S.Tm accumulation of Hoechst in a dose-dependent manner; also recorded: fluorescence comparable to that of PAβN”. For the same molecule, the “glucose-activated efflux of Nile Red” value (S.Tm efflux pumps [3]; 75 μM) was “fully inhibited efflux”, the “Nile Red efflux after washout of compound” value (S.Tm efflux pumps [3]; 15 minutes with compound, washed, then glucose) was “partially restored efflux; also recorded: partially restored Nile Red export” and the “Nile Red fluorescence in the absence of glucose (basal loss)” value (S.Tm efflux pumps [3]; no glucose) was “immediate reduction in fluorescence”. For the same molecule, the “halo in swimming assay” value (S.Tm) was “formed a halo”, the “sensitivity of MDR S.Tm to tetracycline” value [4] was “not” and the “bacterial integrity and viability” value (S.Tm efflux pumps [5]) was “remain intact and viable”.
